As a reminder, the IC50 is the midpoint of a concentration-inhibition curve.

Structures can show the parent of a compound that is named as a salt. Where only a bound is given, the exact number is not on record here.

This test has as its target T1, active human Akt1 (Homo sapiens, UniProt P31749).
T1 construct: Active human recombinant Akt1 (full-length) purified from Sf9 insect cells; purchased Upstate Biotechnology, Inc. 14-276; host or cells: Sf9 insect cells
The test is described as follows: Akt1 Phosphorylation Assay (phosphocellulose filter-binding, 33P-Crosstide). The test is classed as biochemical. To be noted: active human recombinant Akt1 (full-length) 10 nM; 12.5 μM Crosstide; 20 μM ATP; 30 minutes at room temperature. The gist of the method:
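Full-length active human Akt1 (Sf9-expressed, 10 nM) phosphorylated 12.5 μM Crosstide with 20 μM ATP plus 1 μCi γ-33P-ATP in 35 mM HEPES pH 7.3, 15 mM MgCl2, 0.4 mM DTT, 4% DMSO. After 30 min at room temperature, H3PO4-stopped reactions were captured on phosphocellulose filters, washed and scintillation-counted.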

T1 sequence (P31749 whole entry): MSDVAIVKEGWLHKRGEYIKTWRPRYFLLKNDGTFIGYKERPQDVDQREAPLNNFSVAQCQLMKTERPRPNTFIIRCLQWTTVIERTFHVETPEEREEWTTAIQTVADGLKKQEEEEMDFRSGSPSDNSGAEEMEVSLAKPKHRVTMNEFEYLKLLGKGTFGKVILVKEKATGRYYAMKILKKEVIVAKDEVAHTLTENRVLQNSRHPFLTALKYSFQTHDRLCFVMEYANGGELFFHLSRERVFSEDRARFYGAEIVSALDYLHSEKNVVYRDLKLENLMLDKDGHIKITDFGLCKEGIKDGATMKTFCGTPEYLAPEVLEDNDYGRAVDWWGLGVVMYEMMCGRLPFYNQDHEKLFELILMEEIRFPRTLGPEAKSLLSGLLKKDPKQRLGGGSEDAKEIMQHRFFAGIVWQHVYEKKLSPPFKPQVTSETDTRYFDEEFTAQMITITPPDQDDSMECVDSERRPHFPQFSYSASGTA

Regarding `O=S(=O)(NCCNCCCc1ccc(Cl)cc1C1CCNCC1)c1cc(-c2ccccc2)cc2cnccc12` [Example 53, 7-Phenyl-isoquinoline-5-sulfonic acid {2-[3-(4-chloro-2-(piperidin-4-yl)-phenyl)-propylamino]-ethyl}-amide, trihydrochloride salt], the half-inhibitory concentration (IC50) was not above 2000 nM. For `CC1CN(c2cc(Cl)ccc2CCCNCCNS(=O)(=O)c2cc(-c3ccccc3)cc3cnccc23)CCN1` (stereo not shown) [Example 54, 7-Phenyl-isoquinoline-5-sulfonic acid {2-[3-(4-chloro-2-(3-methyl-piperazin-1-yl)-phenyl)-propylamino]-ethyl}-amide, tetrahydrochloride salt], the 50% inhibitory concentration (IC50) was not above 2000 nM. With `N#Cc1ccc(CCCNCCNS(=O)(=O)c2cc(-c3ccccc3)cc3cnccc23)cc1O` [Example 106, 7-Phenyl-isoquinoline-5-sulfonic acid {2-[3-(4-cyano-3-hydroxy-phenyl)-propylamino]-ethyl}-amide, bis-trifluoroacetate salt], the IC50 is not above 2000 nM. As for `O=[N+]([O-])c1ccc(CCCNCCNS(=O)(=O)c2cc(-c3ccccc3)cc3cnccc23)c(-c2ccccc2)c1` [Example 42, 7-Phenyl-isoquinoline-5-sulfonic acid {2-[3-(5-nitro-biphenyl-2-yl)-propylamino]-ethyl}-amide, dihydrochloride salt], the concentration for half-maximal inhibition (IC50) was not above 2000 nM. In the case of `O=[N+]([O-])c1cccc(-c2cc(Cl)ccc2CCCNCCNS(=O)(=O)c2cc(-c3ccccc3)cc3cnccc23)c1` [Example 47, 7-Phenyl-isoquinoline-5-sulfonic acid {2-[3-(5-chloro-3′-nitro-biphenyl-2-yl)-propylamino]-ethyl}-amide, dihydrochloride salt], the IC50 was not above 2000 nM.

In the case of `O=S(=O)(NCCNCCCc1ccc(S(=O)(=O)C(F)(F)F)cc1)c1cc(-c2ccccc2)cc2cnccc12` [Example 102, 7-Phenyl-isoquinoline-5-sulfonic acid {2-[3-(4-trifluoromethanesulfonyl-phenyl)-propylamino]-ethyl}-amide, dihydrochloride salt], the IC50 was not above 2000 nM. In the case of `O=S(=O)(NCCNCCCc1ccc(OC(F)(F)C(F)F)cc1)c1cc(-c2ccccc2)cc2cnccc12` [Example 27, 7-Phenyl-isoquinoline-5-sulfonic acid {2-[3-(4-(1,1,2,2-tetrafluoroethoxy)phenyl)-propylamino]-ethyl}-amide, dihydrochloride salt] it was not above 2000 nM. In the case of `O=[N+]([O-])c1ccc(CC(O)CNCCNS(=O)(=O)c2cc(-c3ccccc3)cc3cnccc23)cc1` (single isomer, unassigned; isomer 1) [Example 85, 7-Phenyl-isoquinoline-5-sulfonic acid [2-(2-hydroxy-3-(4-nitrophenyl)-propylamino)-ethyl]-amide isomer 1, dihydrochloride salt] it was not above 2000 nM. For the compound `O=S(=O)(NCCNCC(O)C(O)c1ccc(S(=O)(=O)C(F)(F)F)cc1)c1cc(-c2ccccc2)cc2cnccc12` (stereo not shown) [Example 113, 7-Phenyl-isoquinoline-5-sulfonic acid {2-[2,3-dihydroxy-3-(4-trifuoromethanesulfonyl-phenyl)-propylamino]-ethyl}-amide, dihydrochloride salt], the IC50 is not above 2000 nM. Turning to `O=S(=O)(NCCNCCCc1cccc(O)c1)c1cc(-c2ccc(O)cc2)cc2cnccc12` [Example 109, 7-(4-Hydroxy-phenyl)-isoquinoline-5-sulfonic acid {2-[3-(3-hydroxy-phenyl)-propylamino]-ethyl}-amide], the 50% inhibitory concentration (IC50) was not above 2000 nM.
